Assay results reported in patent publication US20230135894A1, “MK2 DEGRADERS AND USES THEREOF” (Kymera Therapeutics, Inc., priority 2021, published 2023).

Key:
[1] = target: T1, MK2 (Homo sapiens, UniProt P49137); experiment: MK2 degradation in human THP-1 monocytic cells (MSD, 24 h); type: cell-based; parameters: endogenous in cells; conditions: for Dmax: THP-1, THP-1 cells; for DC50: THP-1 cells, read-out: MK2 MSD THP-1 degradation 24 h GMean External Abs DC50
In short: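 THP-1 cells (200,000/well) treated 24 h at 37 °C with compound dilution series (up to 10 points, 0.1% DMSO). MK2 in RIPA lysates quantified by MSD sandwich immunoassay. DC50 from 4-parameter logistic fit, DMSO-treated cells as high and lysis buffer as low signal.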

[2] = target: T1, MK2; experiment: MK2 degradation in human SW1353 cells (MSD, 24 h); type: cell-based; parameters: endogenous in cells; host or cells: SW-1353 (ATCC HTB-94); key to MK2 MSD SW 1353 24 h Dmax %: —: “-”=not tested or inactive; conditions: for Dmax: read-out: MK2 MSD SW 1353 24 h Dmax %; for DC50: read-out: MK2 MSD SW1353 degradation 24 h GMean External Abs DC50
In short: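 SW1353 chondrosarcoma cells were treated with up to 10-point serial dilutions (0.1% DMSO) for 24 h at 37 °C, then lysed in RIPA buffer. MK2 levels were quantified by MSD sandwich immunoassay; DC50 came from a 4-parameter logistic fit normalised to DMSO-treated cells (high) and lysis buffer (low).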

T1 sequence (P49137 whole entry): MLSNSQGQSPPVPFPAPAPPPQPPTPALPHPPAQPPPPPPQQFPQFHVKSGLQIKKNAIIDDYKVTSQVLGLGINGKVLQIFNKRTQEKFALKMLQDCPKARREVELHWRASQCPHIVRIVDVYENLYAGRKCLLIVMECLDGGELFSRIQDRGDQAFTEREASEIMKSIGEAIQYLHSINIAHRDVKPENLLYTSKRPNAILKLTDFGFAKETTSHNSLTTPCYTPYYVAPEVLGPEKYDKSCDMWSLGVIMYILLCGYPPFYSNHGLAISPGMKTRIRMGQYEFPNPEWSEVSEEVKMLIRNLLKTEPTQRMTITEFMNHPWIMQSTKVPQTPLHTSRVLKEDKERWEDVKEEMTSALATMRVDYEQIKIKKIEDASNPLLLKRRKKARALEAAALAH

Structure (SMILES)	Dmax [1] [%]	DC50 [1] [nM]	Dmax [2] [%]	DC50 [2] [nM]	MK2 MSD SW 1353 24 h Dmax % [2]
Cn1c(=O)n(C2CCC(=O)NC2=O)c2ccc(N3CCC(CN4CCN(c5ccc(-c6cc(-c7cc8c(s7)CCNC8=O)ccn6)cc5)CC4)CC3)cc21 (stereo not shown) [Compound I-406]	< 50	> 100	< 50	> 100	
Cn1c(=O)n(C2CCC(=O)NC2=O)c2ccc(N3CC(CN4CCN(c5ccc(-c6cc(-c7cc8c(s7)CCNC8=O)ccn6)cc5)CC4)C3)cc21 (stereo not shown) [Compound I-407]	< 50	> 100		> 100	—
Cn1c(=O)n(C2CCC(=O)NC2=O)c2ccc(N3CCC4(CC3)CC(N3CCN(c5cc(-c6cc7c([nH]6)C6(CC6)CNC7=O)ccn5)CC3)C4)cc21 (stereo not shown) [Compound I-408]	< 50	> 100		> 100	—
C[C@@H]1CNc2c(sc3ccc4nc(-c5ccc(N6CC7(CCN(c8ccc9c(c8)n(C)c(=O)n9C8CCC(=O)NC8=O)CC7)C6)nc5)ccc4c23)C(=O)N1 (stereo partly drawn) [Compound I-409, 3-(3-methyl-5-(2-(5-((R)-10-methyl-8-oxo-9,10,11,12-tetrahydro-8H-[1,4]diazepino[5′,6′:4,5]thieno[3,2-f]quinolin-3-yl)pyridin-2-yl)-2,7-diazaspiro[3.5]nonan-7-yl)-2-oxo-2,3-dihydro-1H-benzo[d]imidazol-1-yl)piperidine-2,6-dione]	> 75	< 1	> 75	< 1	
C[C@@H]1CNc2c(sc3ccc4nc(N5CCC(N6CCC7(CCN(c8ccc9c(c8)n(C)c(=O)n9C8CCC(=O)NC8=O)CC7)C6)CC5)ccc4c23)C(=O)N1 (stereo partly shown) [Compound I-410]	> 75	< 1	> 75	< 1	
C[C@@H]1CNc2c(sc3ccc4nc(N5CCCN(C6CC7(CCN(c8ccc9c(c8)n(C)c(=O)n9C8CCC(=O)NC8=O)CC7)C6)CC5)ccc4c23)C(=O)N1 (stereo partly shown) [Compound I-411]	50 to 75	10 to 100	50 to 75	1 to 10	
C[C@@H]1CN(C)c2c(sc3ccc4nc(-c5ccc(N6CCN(CC7CN(c8ccc9c(c8)n(C)c(=O)n9C8CCC(=O)NC8=O)C7)CC6)nc5)ccc4c23)C(=O)N1 (stereo partly shown) [Compound I-412]	> 75	< 1	> 75	< 1	
C[C@@H]1CN(C)c2c(sc3ccc4nc(-c5ccc(N6CCN(CCc7cccc8c7n(C)c(=O)n8C7CCC(=O)NC7=O)CC6)cc5)ccc4c23)C(=O)N1 (stereo partly shown) [Compound I-413]	> 75	< 1	> 75	1 to 10	
C[C@@H]1CN(C)c2c(sc3ccc4nc(-c5ccc(N6CCN(CCc7cccc8c7n(C)c(=O)n8C7CCC(=O)NC7=O)CC6)nc5)ccc4c23)C(=O)N1 (stereo partly shown) [Compound I-414]	> 75	1 to 10	> 75	< 1	
Cn1c(=O)n(C2CCC(=O)NC2=O)c2ccc(N3CC(CN4CCN(c5ccc(-c6cc(-c7cc8c([nH]7)C7(CCCC7)CNC8=O)ccn6)cc5)CC4)C3)cc21 (stereo not shown) [Compound I-415]	> 75	< 1	> 75	< 1	
C[C@@H]1Cc2oc(-c3ccnc(-c4ccc(N5CCN(CC6CCN(c7cccc8c7n(C)c(=O)n8C7CCC(=O)NC7=O)CC6)CC5)nc4)c3)cc2C(=O)N1 (stereo partly shown) [Compound I-416]	< 50	> 100	50 to 75	10 to 100	
C[C@@H]1Cc2oc(-c3ccnc(-c4ccc(N5CCN(CC6CN(c7ccc8c(c7)n(C)c(=O)n8C7CCC(=O)NC7=O)C6)CC5)nc4)c3)cc2C(=O)N1 (stereo partly shown) [Compound I-417]	> 75	1 to 10	> 75	< 1	
Cn1c(=O)n(C2CCC(=O)NC2=O)c2cccc(N3CC(N4CCN(c5ccc(-c6cc(-c7cc8c([nH]7)C7(CCCC7)CNC8=O)ccn6)cc5)CC4)C3)c21 (stereo not shown) [Compound I-418]	> 75	1 to 10	> 75	< 1	
Cn1c(=O)n(C2CCC(=O)NC2=O)c2cccc(N3CC(N4CCN(c5ccc(-c6cc(-c7cc8c([nH]7)C7(CC7)CNC8=O)ccn6)cc5)CC4)C3)c21 (stereo not shown) [Compound I-419]	> 75	< 1	> 75	< 1	
C[C@@H]1CNc2c(sc3ccc4nc(-c5ccc(N6CCN(CC7CCN(c8cccc(C9CCC(=O)NC9=O)c8)CC7)CC6)nc5)ccc4c23)C(=O)N1 (stereo partly shown) [Compound I-420]	> 75	1 to 10	> 75	1 to 10	
C[C@@H]1CNc2c(sc3ccc4nc(-c5ccc(N6CCN(CC7CCN(c8ccc(C9CCC(=O)NC9=O)cc8)CC7)CC6)nc5)ccc4c23)C(=O)N1 (stereo partly shown) [Compound I-421]	> 75	1 to 10	> 75	1 to 10	

Structure (SMILES)	Dmax [1] [%]	DC50 [1] [nM]	Dmax [2] [%]	DC50 [2] [nM]	MK2 MSD SW 1353 24 h Dmax % [2]
Cn1c(=O)n(C2CCC(=O)NC2=O)c2ccc(N3CC(CN4CCN(c5ccc(-c6cc(-c7cc8c([nH]7)C7(CCCC7)CNC8=O)ccn6)c(F)c5)CC4)C3)cc21 (stereo not shown) [Compound I-422]	> 75	< 1	> 75	< 1	
Cn1c(=O)n(C2CCC(=O)NC2=O)c2ccc(N3CC(CN4CCN(c5ccc(-c6cc(-c7cc8c([nH]7)CCNC8=O)ccn6)c(F)c5)CC4)C3)cc21 (stereo not shown) [Compound I-423]	> 75	< 1	> 75	< 1	
Cn1c(=O)n(C2CCC(=O)NC2=O)c2ccc(N3CCC(CN4CCN(c5ccc(-c6cc(-c7cc8c([nH]7)C7(CCCC7)CNC8=O)ccn6)c(F)c5)CC4)CC3)cc21 (stereo not shown) [Compound I-424]	> 75	1 to 10	> 75	< 1	
Cn1c(=O)n(C2CCC(=O)NC2=O)c2ccc(N3CC(CN4CCN(c5ccc(-c6cc(-c7cc8c([nH]7)C7(CC7)CNC8=O)ccn6)c(F)c5)CC4)C3)cc21 (stereo not shown) [Compound I-425]	> 75	< 1	> 75	< 1	
Cn1c(=O)n(C2CCC(=O)NC2=O)c2ccc(N3CC(CN4CCN(c5ccc(-c6nccc(-c7cc8c([nH]7)C7(CC7)CNC8=O)n6)cc5)CC4)C3)cc21 (stereo not shown) [Compound I-426]	> 75	< 1	> 75	< 1	
Cn1c(=O)n(C2CCC(=O)NC2=O)c2ccc(N3CCC(CN4CCN(c5ccc(-c6nccc(-c7cc8c([nH]7)CCNC8=O)n6)cc5)CC4)CC3)cc21 (stereo not shown) [Compound I-427]	> 75	< 1	> 75	< 1	
Cn1c(=O)n(C2CCC(=O)NC2=O)c2ccc(N3CCC(CN4CCN(c5ccc(-c6nccc(-c7cc8c([nH]7)C7(CC7)CNC8=O)n6)cc5)CC4)CC3)cc21 (stereo not shown) [Compound I-428]	> 75	1 to 10	> 75	< 1	
Cn1c(=O)n(C2CCC(=O)NC2=O)c2ccc(N3CCC(CN4CCN(c5ccc6oc(-c7cc(Nc8ccnc(N)n8)cc8cn[nH]c78)cc6c5)CC4)CC3)cc21 (stereo not shown) [Compound I-429]	< 50	> 100	< 50	> 100	
COc1ccc2c(c1CCN1CCN(c3ccc(-c4cc(-c5cc6c([nH]5)C5(CC5)CNC6=O)ccn4)cc3)CC1)n(C)c(=O)n2C1CCC(=O)NC1=O (stereo not shown) [Compound I-430]	> 75	< 1	> 75	< 1	
Cn1c(=O)n(C2CCC(=O)NC2=O)c2cccc(CCN3CCN(c4ccc(-c5nccc(-c6cc7c([nH]6)C6(CC6)CNC7=O)c5F)cc4)CC3)c21 (stereo not shown) [Compound I-431]	< 50	> 100	50 to 75	10 to 100	
COc1cc(-c2ccc3c(ccc4sc5c(c43)NC[C@@H](C)NC5=O)n2)c(C)cc1N1CCN(CC2CCN(c3ccc4c(c3)n(C)c(=O)n4C3CCC(=O)NC3=O)CC2)CC1 (stereo partly shown) [Compound I-432]	50 to 75	10 to 100	> 75	< 1	
C[C@@H]1CNc2c(sc3ccc4nc(N5CC6CCC(C5)N6CC5CCN(c6ccc7c(c6)n(C)c(=O)n7C6CCC(=O)NC6=O)CC5)ccc4c23)C(=O)N1 (stereo partly shown) [Compound I-433]	< 50	> 100	< 50	> 100	
C[C@@H]1CNc2c(sc3ccc4nc(N5C6CCC5CN(CC5CCN(c7ccc8c(c7)n(C)c(=O)n8C7CCC(=O)NC7=O)CC5)C6)ccc4c23)C(=O)N1 (stereo partly shown) [Compound I-434]	< 50	> 100	< 50	> 100	
C[C@@H]1CNc2c(sc3ccc4nc(N5C6CCC5CN(CC5CCN(c7cccc8c7n(C)c(=O)n8C7CCC(=O)NC7=O)CC5)C6)ccc4c23)C(=O)N1 (stereo partly shown) [Compound I-435]	< 50	> 100		> 100	—
C[C@@H]1CNc2c(sc3ccc4nc(N5CC6CCC(C5)N6CC5CCN(c6cccc7c6n(C)c(=O)n7C6CCC(=O)NC6=O)CC5)ccc4c23)C(=O)N1 (stereo partly shown) [Compound I-436]	< 50	> 100		> 100	—
